What all share (type): functional
Experiment [1] deals with Haemophilus influenzae. As to the kind of experiment: Antibacterial activity against genetically beta-lactamase-negative ampicillin-susceptible Haemophilus influenzae type b without amino acid substitutions in ftsI gene and bla gene by broth microdilution method. A general note: Broth dilution looks for growth in wells or tubes with falling amounts of substance.
The test system of experiment [2] is Haemophilus influenzae. Description: Antibacterial activity against genetically beta-lactamase-negative ampicillin-resistant Haemophilus influenzae type b with an amino acid substitution in variable mutated locus Asn-526 or Arg-517 of ftsI gene by broth microdilution method.
Experiment [3] has as its system Haemophilus influenzae. As to the kind of experiment: Antibacterial activity against genetically beta-lactamase-negative ampicillin-resistant Haemophilus influenzae type b with an amino acid substitution in highly mutated locus Ser-385 of ftsI gene by broth microdilution method.
For experiment [4], the system named is Haemophilus influenzae. As to the kind of experiment: Antibacterial activity against genetically beta-lactamase-negative ampicillin-susceptible Haemophilus influenzae type b without amino acid substitutions in ftsI gene and bla gene assessed as susceptibility rate by broth microdilution method.
The test system of experiment [5] is Haemophilus influenzae. As to the kind of experiment: Antibacterial activity against genetically beta-lactamase-negative ampicillin-susceptible Haemophilus influenzae type b without amino acid substitutions in ftsI gene and bla gene assessed as resistance rate by broth microdilution method.
For experiment [6], the system named is Haemophilus influenzae. As to the kind of experiment: Antibacterial activity against genetically beta-lactamase-negative ampicillin-resistant Haemophilus influenzae type b with an amino acid substitution in highly mutated locus Ser-385 of ftsI gene assessed as susceptibility rate by broth microdilution method.
Experiment [7] has as its system Haemophilus influenzae. As to the kind of experiment: Antibacterial activity against genetically beta-lactamase-negative ampicillin-resistant Haemophilus influenzae type b with an amino acid substitution in highly mutated locus Ser-385 of ftsI gene assessed as resistance rate by broth microdilution method.
In experiment [8] the test system is Haemophilus influenzae. Description: Antibacterial activity against genetically beta-lactamase-negative ampicillin-resistant Haemophilus influenzae type b with an amino acid substitution in variable mutated locus Asn-526 or Arg-517 of ftsI gene assessed as resistance rate by broth microdilution method.
Experiment [9] has as its system Haemophilus influenzae. As to the kind of experiment: Antibacterial activity against genetically beta-lactamase-negative ampicillin-resistant Haemophilus influenzae type b with an amino acid substitution in variable mutated locus Asn-526 or Arg-517 of ftsI gene assessed as susceptibility rate by broth microdilution method.
The test system of experiment [10] is Haemophilus influenzae. As to the kind of experiment: Antibacterial activity against genetically […] but without an amino acid substitution in ftsI gene by broth microdilution method.
Experiment [11] deals with Haemophilus influenzae. As to the kind of experiment: Antibacterial activity against genetically […] but without an amino acid substitution in ftsI gene assessed as susceptibility rate by broth microdilution method.
In experiment [12] the test system is Haemophilus influenzae. As to the kind of experiment: Antibacterial activity against genetically beta-lactamase-positive amoxicillin-clavulanate-resistant Haemophilus influenzae type b with an amino acid substitution in variable mutated locus Asn-526 or Arg-517 of ftsI gene assessed as susceptibility rate by broth microdilution method.
Experiment [13] concerns Haemophilus influenzae. Description: Antibacterial activity against genetically beta-lactamase-positive amoxicillin-clavulanate-resistant Haemophilus influenzae type b with an amino acid substitution in highly mutated locus Ser-385 of ftsI gene assessed as susceptibility rate by broth microdilution method.
For experiment [14], the system named is Haemophilus influenzae. Description: Antibacterial activity against genetically beta-lactamase-positive amoxicillin-clavulanate-resistant Haemophilus influenzae type b with an amino acid substitution in highly mutated locus Ser-385 of ftsI gene assessed as resistance rate by broth microdilution method.
Experiment [15] deals with Haemophilus influenzae. As to the kind of experiment: Antibacterial activity against genetically beta-lactamase-positive amoxicillin-clavulanate-resistant Haemophilus influenzae type b with an amino acid substitution in variable mutated locus Asn-526 or Arg-517 of ftsI gene assessed as resistance rate by broth microdilution method.
Experiment [16] relates to Haemophilus influenzae. Description: Antibacterial activity against genetically beta-lactamase-positive amoxicillin-clavulanate-resistant Haemophilus influenzae type b with an amino acid substitution in highly mutated locus Ser-385 of ftsI gene by broth microdilution method.
The subject of experiment [17] is Haemophilus influenzae. As to the kind of experiment: Antibacterial activity against beta-lactamase-negative ampicillin-resistant Haemophilus influenzae by Etest.
Experiment [18] relates to Haemophilus influenzae. Description: Antibacterial activity against genetically […] but without an amino acid substitution in ftsI gene assessed as resistance rate by broth microdilution method.
In experiment [19] the test system is Haemophilus influenzae. Description: Antibacterial activity against beta-lactamase-negative ampicillin-resistant Haemophilus influenzae with mutation in AcrAB repressor gene […].
Experiment [20] concerns Haemophilus influenzae. As to the kind of experiment: Antibacterial activity against genetically beta-lactamase-positive amoxicillin-clavulanate-resistant Haemophilus influenzae type b with an amino acid substitution in variable mutated locus Asn-526 or Arg-517 of ftsI gene by broth microdilution method.

Experimental findings from ChEMBL document CHEMBL1137636, “Genetic characteristics and clonal dissemination of beta-lactamase-negative ampicillin-resistant Haemophilus influenzae strains isolated from the upper respiratory tract of patients in Japan” (2007) are described below.

Values after ≈ are worked out from the molar mass of the structure shown.

On to `CO/N=C(\C(=O)N[C@@H]1C(=O)N2C(C(=O)OCOC(=O)C(C)(C)C)=C(/C=C\c3scnc3C)CS[C@H]12)c1csc(N)n1` [CEFDITOREN PIVOXIL], for which the MIC50 is at most 0.06 µg/mL in [1], at most 0.06 µg/mL in experiment [2] and 0.25 µg/mL (≈ 0.403 µM) in [3]. For the same compound, the MIC90 in experiment [1] was at most 0.06 µg/mL; in experiment [2], 0.12 µg/mL (≈ 0.193 µM); in experiment [3], 0.5 µg/mL (≈ 0.805 µM).
With `CO/N=C(\C(=O)N[C@@H]1C(=O)N2C(C(=O)O)=C(COC(N)=O)CS[C@H]12)c1ccco1` [CEFUROXIME], the Activity was 97.7% in experiment [4]; 1.2% in experiment [5]; 1.4% in experiment [6]; 94.6% in [7]; 21.4% in [8]; 66.3% in [9]. The figures for the MIC50 in [1], in experiment [2] and in [3] were 1 µg/mL (≈ 2.36 µM), 2 µg/mL (≈ 4.71 µM) and 64 µg/mL (≈ 151 µM), respectively. Also, the MIC90 in experiment [1] is 2 µg/mL (≈ 4.71 µM); in experiment [2], 16 µg/mL (≈ 37.7 µM); in experiment [3], 128 µg/mL (≈ 302 µM).
Turning to `CC[C@H]1OC(=O)[C@H](C)[C@@H](O[C@H]2C[C@@](C)(OC)[C@@H](O)[C@H](C)O2)[C@H](C)[C@@H](O[C@@H]2O[C@H](C)C[C@H](N(C)C)[C@H]2O)[C@](C)(OC)C[C@@H](C)C(=O)[C@H](C)[C@@H](O)[C@]1(C)O` [CLARITHROMYCIN], the Activity in experiment [4] worked out at 79.3%; in experiment [5], 3.5%; in experiment [6], 60.8%; in experiment [7], 0%; in experiment [8] it was 2%; in experiment [9], 75.5%. Moreover, the MIC50 in [1], in [2] and in experiment [3] was 8 µg/mL (≈ 10.7 µM) in each case. In addition, the MIC90 in experiment [1], in experiment [2] and in experiment [3] was 16 µg/mL (≈ 21.4 µM) each time.
Regarding `C[C@H]1COc2c(N3CCN(C)CC3)c(F)cc3c(=O)c(C(=O)O)cn1c23.C[C@H]1COc2c(N3CCN(C)CC3)c(F)cc3c(=O)c(C(=O)O)cn1c23.O` [LEVOFLOXACIN], the Activity in [4] came to 100%; in experiment [5], 0%; in experiment [6] it was 100%; in experiment [7], 0%; in [8], 0%; in experiment [9], 100%. For the same compound, the MIC50 in experiment [1], in [2] and in experiment [3] was at most 0.06 µg/mL throughout. Further, the MIC90 in [1], in [2] and in experiment [3] was at most 0.06 µg/mL in each case.
Turning to `CC[C@H]1OC(=O)[C@H](C)C(=O)[C@H](C)[C@@H](O[C@@H]2O[C@H](C)C[C@H](N(C)C)[C@H]2O)[C@](C)(OC)C[C@@H](C)C(=O)[C@H](C)[C@H]2N(CCCCn3cnc(-c4cccnc4)c3)C(=O)O[C@]12C` [TELITHROMYCIN], the Activity in [4] was 97.7%; in experiment [5], 0%; in experiment [6], 87.8%; in experiment [7] it was 0%; in [8], 0%; in [9], 93.9%. Further, the MIC50 in experiment [1], in [2] and in experiment [3] was 2 µg/mL (≈ 2.46 µM) each time. Moreover, the MIC90 in experiment [1], in [2] and in experiment [3] was 4 µg/mL (≈ 4.93 µM) each time.
As to `CC[C@H]1OC(=O)[C@H](C)[C@@H](O[C@H]2C[C@@](C)(OC)[C@@H](O)[C@H](C)O2)[C@H](C)[C@@H](O[C@@H]2O[C@H](C)C[C@H](N(C)C)[C@H]2O)[C@](C)(O)C[C@@H](C)CN(C)[C@H](C)[C@@H](O)[C@]1(C)O` [AZITHROMYCIN], the Activity in [4] is given as 98.8%; in [5], 1.2%; in experiment [6], 97.3%; in [7], 2.7%; in [8], 4.1%; in experiment [9], 95.9%. Besides, the MIC50 in [1], in experiment [2] and in [3] was 2 µg/mL (≈ 2.67 µM) each time. In addition, the MIC90 in experiment [1], in [2] and in [3] was 4 µg/mL (≈ 5.34 µM) throughout.
As for `COCC1=C(C(=O)O)N2C(=O)[C@@H](NC(=O)/C(=N\OC)c3csc(N)n3)[C@H]2SC1` [CEFPODOXIME], the Activity came to 100% in experiment [4]; 0% in experiment [5]; 9.1% in experiment [6]; 91.9% in experiment [7]; 9.2% in [8]; 90.8% in experiment [9]. The values for the MIC50 in experiment [1], in experiment [2] and in experiment [3] were 0.12 µg/mL (≈ 0.281 µM), 0.25 µg/mL (≈ 0.585 µM) and 8 µg/mL (≈ 18.7 µM), respectively. Further, the MIC90 in [1] was 0.12 µg/mL (≈ 0.281 µM); in [2], 2 µg/mL (≈ 4.68 µM); in experiment [3] it was 16 µg/mL (≈ 37.4 µM).
With `CC1(C)S[C@@H]2[C@H](NC(=O)[C@H](N)c3ccccc3)C(=O)N2[C@H]1C(=O)O` [AMPICILLIN], the Activity in [4] is 100%; in [5], 0%; in experiment [11], 0%; in experiment [12], 0%; in [13], 0%; in experiment [14], 100%. The Activity in [15] came out at 100%; in [6], 9.5%; in experiment [7] it was 71.6%; in [8] it was 8.1%; in experiment [18], 100%; in experiment [9], 68.4%. Further, the MIC50 in [10] is 64 µg/mL (≈ 183 µM); in experiment [1], 0.5 µg/mL (≈ 1.43 µM); in experiment [2] it was 0.5 µg/mL (≈ 1.43 µM); in [16], above 128 µg/mL; in experiment [3], 4 µg/mL (≈ 11.4 µM); in experiment [20] it was 128 µg/mL. The MIC90 in [10] is above 128 µg/mL; in experiment [1] it was 0.5 µg/mL (≈ 1.43 µM); in experiment [2], 2 µg/mL (≈ 5.72 µM); in [16], above 128 µg/mL; in experiment [3], 16 µg/mL (≈ 45.8 µM); in [20], 128 µg/mL. Moreover, the MIC in experiment [17] stood at 256 µg/mL (≈ 733 µM); in experiment [19], 8 µg/mL (≈ 22.9 µM).
As to `C[C@@H](O)[C@H]1C(=O)N2C(C(=O)O)=C(S[C@@H]3CN[C@H](C(=O)N(C)C)C3)[C@H](C)[C@H]12` [MEROPENEM], the Activity is 100% in experiment [4]; 0% in experiment [5]; 90.5% in experiment [6]; 9.5% in experiment [7]; 0% in experiment [8]; 100% in experiment [9]. Moreover, the figures for the MIC50 in experiment [1], in experiment [2] and in experiment [3] were at most 0.06 µg/mL, 0.12 µg/mL (≈ 0.313 µM) and 0.25 µg/mL (≈ 0.652 µM), respectively. Also, the MIC90 in experiment [1] is at most 0.06 µg/mL; in experiment [2], 0.25 µg/mL (≈ 0.652 µM); in [3], 0.5 µg/mL (≈ 1.3 µM).
